Patent US10253236B2, “Environmental friendly well treatment fluids comprising an ester” (AMRIL AG, priority 2013, dated 2019)

Legend:
[1] = Rheological characteristics of the oil based mud (Fann SR 12/Model 35 rheometer); assay type: physicochemical; details: 2.5 g additive in oil based mud, measuring temp. 50° C.
Protocol: (§1) An oil based well treatment fluid was prepared as follows: the indicated amounts of the following ingredients are mixed using a Silverson Mixer (model L4RT) in the following order: synthetic paraffin, filtration control agent (a polymer: preferably Adapta by Halliburton), Ca(OH)2, Amidoamin (Terradril EM 1122), Water, CaCl2*2H2O, BaSO4, ball clay.
(§2) Next, either an ester of the invention (for example azelaic ricinoleate or an ester based on a C21 dimer acid and ricinoleic acid) or a conventional viscosifier (C36 dimer acid) is added to the mixture and to obtain the final emulsion a standard Hamilton Beach mixer was used, following manufacturer's instructions.
(§3) Next, the rheological characteristics including the fluids-plastic viscosity (PV), yield point (YP) and gel strength (gels 10″/10′) after 10 seconds and 10 minutes were determined with a Fann SR 12/Model 35 rheometer (Fann). In addition to the rheological characteristics, the electrical stability was tested using a Model 23D Electrical Stability Tester, following manufacturer's instructions, in accordance with API recommended practice 13B-2, December 1991.
(§4) The well treatment fluid was also tested in a Roller Oven for the indicated times at the indicated temperatures (after hot rolling=AHR and before hot rolling=BHR as indicated in the Table). As roller oven, a Baroid Laboratory Roller Oven was used, following manufacturer's instructions.

[2] = Electrical stability of the oil based mud (Model 23D Electrical Stability Tester, API 13B-2); assay type: physicochemical; details: 2.5 g additive in oil based mud, measuring temp. 50° C.
Protocol: as §1, §2, §3, §4

seawater bacteria = assay: Inhibition to seawater bacteria (Marine BODIS test); details: natural seawater
Protocol: This method uses natural seawater (salinity 34%-37%) with added mineral nutrients (8.5 g/l KH2PO4, 21.7 g/l K2HPO4, 29.92 g/l Na2HPO4.2H2O, 0.5 g/l NH4Cl, 31.84 CaCl2, 22.5 g/l MgSO4.7H2O, 0.25 g/l FeCl3.6H2O, 0.4 g/l EDTA) and no inoculum was added in addition to the microorganisms already present in the seawater. The test vessels were closed glass bottles with a known volume of aqueous test mixture (66.6%) and air (33.3%). They were shaken continuously to assure steady state oxygen partitioning between the aqueous and gaseous phase. The degradation was followed by weekly measurements of the biochemical oxygen demand (BOD) in the aqueous phase for a 28-day period. The test vessels were re-aerated and resealed after measurement. The total oxygen uptake in the test flasks was calculated from the measured oxygen concentration divided by the saturation value at normal conditions and multiplied with the total oxygen content originally present in the aqueous and gaseous phases.
Three replicates were used for each test condition: test substance, controls, and insoluble reference substance. The total oxygen capacity of each test vessel was 26.64 mg oxygen. […]

[3] = AHR 16 h (System 4: 15 h) at 150 °F
[4] = AHR (after hot rolling) 16 h (System 4: 15 h) at 150 °F

Compound: C36 dimer acid
- 3 rpm [1, 3]: 10 skt
- 6 rpm [1, 3]: 12 skt
- 100 rpm [1, 3]: 23 skt
- 200 rpm [1, 3]: 29 skt
- 300 rpm [1, 3]: 35 skt
- 600 rpm [1, 3]: 49 skt
- Gels 10′ (gel strength after 10 minutes) [1, 3]: 15 lb/100 ft^2
- Gels 10″ (gel strength after 10 seconds) [1, 3]: 11 lb/100 ft^2
- PV (plastic viscosity) [1, 3]: 14 cP
- YP (yield point) [1, 3]: 21 lb/100 ft^2
- 3 rpm ([1]; BHR): 15 skt
- 6 rpm ([1]; BHR): 15 skt
- 100 rpm ([1]; BHR): 25 skt
- 200 rpm ([1]; BHR): 32 skt
- 300 rpm ([1]; BHR): 39 skt
- 600 rpm ([1]; BHR): 52 skt
- Gels 10′ (gel strength after 10 minutes) ([1]; BHR): 19 lb/100 ft^2
- Gels 10″ (gel strength after 10 seconds) ([1]; BHR): 16 lb/100 ft^2
- PV (plastic viscosity) ([1]; BHR): 13 cP
- YP (yield point) ([1]; BHR): 26 lb/100 ft^2
- Electrical stab. [2, 4]: 830 V
- Electrical stab. ([2]; BHR (before hot rolling)): 795 V
- inhibition to seawater bacteria (seawater bacteria): −1%

Compound: CCCCCCC(CC=CCCCCCCCC(=O)O)OC(=O)CCCCCCCC(=O)O (stereo not shown) [Azelaic ricinoleate, azelaic ricinoleate]
- 3 rpm [1, 3]: 24 skt
- 6 rpm [1, 3]: 24 skt
- 100 rpm [1, 3]: 30 skt
- 200 rpm [1, 3]: 37 skt
- 300 rpm [1, 3]: 44 skt
- 600 rpm [1, 3]: 59 skt
- Gels 10′ (gel strength after 10 minutes) [1, 3]: 25 lb/100 ft^2
- Gels 10″ (gel strength after 10 seconds) [1, 3]: 22 lb/100 ft^2
- PV (plastic viscosity) [1, 3]: 15 cP
- YP (yield point) [1, 3]: 29 lb/100 ft^2
- 3 rpm ([1]; BHR): 25 skt
- 6 rpm ([1]; BHR): 25 skt
- 100 rpm ([1]; BHR): 31 skt
- 200 rpm ([1]; BHR): 38 skt
- 300 rpm ([1]; BHR): 44 skt
- 600 rpm ([1]; BHR): 59 skt
- Gels 10′ (gel strength after 10 minutes) ([1]; BHR): 25 lb/100 ft^2
- Gels 10″ (gel strength after 10 seconds) ([1]; BHR): 20 lb/100 ft^2
- PV (plastic viscosity) ([1]; BHR): 15 cP
- YP (yield point) ([1]; BHR): 29 lb/100 ft^2
- Electrical stab. [2, 4]: 802 V
- Electrical stab. ([2]; BHR (before hot rolling)): 760 V
- inhibition to seawater bacteria (seawater bacteria): −14%
